Assay results from publication PMC111503 (Malaria Journal, 2002).
Where two headings read alike, the source gives them in different places.

Assays:
[1] = target: recombinant PfPP1 (Plasmodium falciparum, UniProt Q8ILV1); experiment: biochemical; type: biochemical
[2] = test system: PP1; conditions: cited from earlier work
[3] = test system: PP2A; conditions: read-out: characteristic IC50; cited from earlier work
[4] = test system: PP2B; conditions: cited from earlier work
[5] = test system: other phosphatases; conditions: cited from earlier work
[6] = read-out: IC50 for inhibition of PfPP1

Work on [F-].[Na+] [NaF] yielded an IC50 ([1]; read-out: IC50 for inhibition of PfPP1, recombinant PfPP1, data not shown) of 2500 µM.
For C=C1[C@@H](O)[C@@H]2O[C@]3(CC[C@H](/C=C/[C@@H](C)[C@@H]4CC(C)=C[C@@]5(O[C@H](C[C@@](C)(O)C(=O)O)CC[C@H]5O)O4)O3)CC[C@H]2O[C@@H]1[C@@H](O)C[C@H](C)[C@H]1O[C@@]2(CCCCO2)CC[C@H]1C [OA, okadaic acid], the IC50 ([2]; read-out: characteristic IC50) is listed as 0.02 to 0.08 µM, the IC50 [1] is listed as 0.1 µM and the IC50 [3] is listed as 0.001 to 0.005 µM. For the same compound, the “sensitivity of PP2B to toxin” value [4] was “highly resistant”.
Compound O=P(O)(O)O [inorganic orthophosphate] has an IC50 [1, 6] of 10000 µM.
With O=P(O)(O)OP(=O)(O)O [pyrophosphate] the IC50 [1, 6] was 90 µM.
In the case of CO[C@H]([C@H](O)CC(=O)[C@@H](C)[C@@H](O)CC[C@@H](C)[C@@H]1O[C@]2(CC[C@@H](C)[C@H](CC[C@H](C)C(C)=O)O2)CC[C@@H]1C)[C@H](OC(=O)C[C@@H](O)C1=C(C)C(=O)OC1=O)C(C)C [tautomycin], the “effect on PP1 versus PP2A” value ([2]; PP1 and PP2A compared) is given as “nearly equally”, the IC50 [1] is given as 0.0008 µM and the “inhibition of other phosphatases” value [5] is given as “fails to inhibit”.
